# Experimental data reported in US10640507B2, “PBD antibacterial agents” (KING'S COLLEGE LONDON, priority 2015, dated 2020).
# Read-outs that look alike come from different tables or passages of the source.
# Legend:
# [1] = tested on: K. pneumonia NCTC 13438; experiment: General MIC protocol, Gram negative; assay type: cell-based; conditions: K. pneumonia NCTC 13438
# Procedure: (§1) General Minimum Inhibitory Concentration (MIC) Protocol
# (§2) 1. Grow up cultures of bacterial strains to be tested overnight.
# (§3) 2. Dilute down overnight cultures to concentration of 1×10^6 bacteria/ml (OD0.01) in Tryptic soy broth (TSB).
# (§4) 3. Add 100 μl of TSB media to column 2-column 12 in 96 well plate (keeping column 1 clear).
# (§5) 4. Make up compound to a concentration of 64 μg/ml in water (or alternatively to twice the chosen maximum concentration to be tested).
# (§6) 5. Add 100 μl of antibiotic solution to the 1st and 2nd columns.
# (§7) 6. Using a multichannel pipette take 100 μl from the 2nd column wells and pipette into 3rd column wells and repeat down the 96 well plate (remembering to include controls i.e. uninfected media and media with no antibiotic).
# (§8) 7. To each well (except uninfected control row H) add 100 μl of bacterially infected media at a concentration of 1×10^6/ml.
# (§9) 8. This dilutes down the concentration of the antibiotic by half (top dose is therefore 32 μg/ml in column 1) and also gives you a starting bacterial concentration of 5×10^5/ml.
# (§10) 9. Wrap plate with parafilm to prevent evaporation.
# (§11) 10. Leave at desired temperature (37° C. unless specified elsewhere) for 20 hours.
# (§12) 11. Next day check plates for growth and measure optical density (i.e. absorbance) at a wavelength of 600 nm (OD600).
# (§13) An example of such a plate is shown in FIG. 1 where column A represents wells that receive the top dose 100 μl; column B represents wells that receive the top dose 100 μl+100 μl TSB; and column C represents wells that receive 100 μl TSB. Row H which is marked by a box labelled D represents a blank where the cells receive no bacteria.
# [2] = tested on: K. pneumonia KP16; experiment: General MIC protocol, Gram negative; assay type: cell-based; conditions: K. pneumonia KP16
# Procedure: as §1, §2, §3, §4, §5, §6, §7, §8, §9, §10, §11, §12, §13
# [3] = tested on: P. aeruginosa PA01; experiment: General MIC protocol, Gram negative; assay type: cell-based; conditions: Pseudomonas aeruginosa
# Procedure: as §1, §2, §3, §4, §5, §6, §7, §8, §9, §10, §11, §12, §13
# [4] = tested on: K. pneumonia MGH 78578; experiment: General MIC protocol, Gram negative; assay type: cell-based; conditions: K. pneumonia MGH 78578
# Procedure: as §1, §2, §3, §4, §5, §6, §7, §8, §9, §10, §11, §12, §13
# [5] = tested on: K. pneumonia NCTC 13443; experiment: General MIC protocol, Gram negative; assay type: cell-based; conditions: K. pneumonia NCTC 13443
# Procedure: as §1, §2, §3, §4, §5, §6, §7, §8, §9, §10, §11, §12, §13
# [6] = tested on: K. pneumonia NCTC 13439; experiment: General MIC protocol, Gram negative; assay type: cell-based; conditions: K. pneumonia NCTC 13439
# Procedure: as §1, §2, §3, §4, §5, §6, §7, §8, §9, §10, §11, §12, §13
# [7] = tested on: K. pneumonia NCTC 51851; experiment: General MIC protocol, Gram negative; assay type: cell-based; conditions: K. pneumonia NCTC 51851
# Procedure: as §1, §2, §3, §4, §5, §6, §7, §8, §9, §10, §11, §12, §13
# [8] = tested on: Psueudomonas GH12; experiment: General MIC protocol, Gram negative; assay type: cell-based; conditions: Pseudomonas
# Procedure: as §1, §2, §3, §4, §5, §6, §7, §8, §9, §10, §11, §12, §13
# The activity of the compound designated PP-A148 was tested against an extended panel of Klebsiella and Pseudomonas Gram-negative bacterial strains that have proven drug resistant difficult to treat. […] The minimum inhibitory concentration (MIC) was measured using the general MIC protocol given above.
# [9] = tested on: Klebsiella KP 342; experiment: General MIC protocol, Gram negative; assay type: cell-based; conditions: KP342
# Procedure: as §1, §2, §3, §4, §5, §6, §7, §8, §9, §10, §11, §12, §13
# The minimum inhibitory concentration (MIC) was measured using the general MIC protocol given above.
# [10] = tested on: EMRSA-16; experiment: General MIC protocol, Gram positive panel; assay type: cell-based
# Procedure: as §1, §2, §3, §4, §5, §6, §7, §8, §9, §10, §11, §12, §13
# [11] = tested on: E. faecalis VSE NCTC 775; experiment: General MIC protocol, Gram positive panel; assay type: cell-based; conditions: Enterococcus faecalis, NCTC775; VSE 775
# Procedure: as §1, §2, §3, §4, §5, §6, §7, §8, §9, §10, §11, §12, §13
# [12] = tested on: E. faecalis VRE NCTC 12201; experiment: General MIC protocol, Gram positive panel; assay type: cell-based
# Procedure: as §1, §2, §3, §4, §5, §6, §7, §8, §9, §10, §11, §12, §13
# [13] = tested on: E. faecium VRE NCTC 12204; experiment: General MIC protocol, Gram positive panel; assay type: cell-based
# Procedure: as §1, §2, §3, §4, §5, §6, §7, §8, §9, §10, §11, §12, §13
# [14] = tested on: methicillin sensitive S. aureus ATTC 9144 (NCTC 6571); experiment: General MIC protocol, Gram positive panel; assay type: cell-based; conditions: Staphylococcus aureus, MSSA / NCTC 6571; MSSA 9144
# Procedure: as §1, §2, §3, §4, §5, §6, §7, §8, §9, §10, §11, §12, §13
# [15] = tested on: EMRSA-15; experiment: General MIC protocol, Gram positive panel; assay type: cell-based
# Procedure: as §1, §2, §3, §4, §5, §6, §7, §8, §9, §10, §11, §12, §13
# [16] = tested on: HeLa (Cervical cancer cell line); experiment: MTT cytotoxicity assay; assay type: cell-based; conditions: Homo sapiens, MTT, 24 h continuous exposure, read-out: IC50 HeLa (Cervical cancer cell line)
# Procedure: (§14) Two immortalised human cell lines, HeLa and WI38 were used for cytotoxicity screening of the compounds. HeLa is a human cervical cancer cell line and WI38 is a normal healthy cell line. The cell lines were obtained from the American Type Culture Collection. The cell-lines were maintained in monolayer culture in 75 cm2 flasks (TPP, Switzerland) under a humidified 5% CO2 atmosphere at 37° C. The HeLa cell line was maintained in Dulbecco's Modified Eagles Media (DMEM; Invitrogen) supplemented with foetal bovine serum (10% v/v; Invitrogen), L-glutamine (2 mM; Invitrogen), non-essential amino acids (1×; Invitrogen) and Penicillin-Streptomycin (1% v/v, Invitrogen). For WI38, Eagle's Minimum Essential Medium, and Penicillin-Streptomycin (1% v/v, Invitrogen) and foetal bovine serum (10%, nvitrogen) was used. For passaging, cells were washed with phosphate buffered saline [PBS] (GIBCO 14040, Invitrogen, UK), incubated with trypsine (GIBCO 25300, Invitrogen, UK), and re-seeded into fresh medium. For seeding, cells were counted using a Neubauer haemocytometer (Assistant, Germany) by microscopy (Nikon, USA) on a non-adherent suspension of cells that were washed in PBS, trypsinised, centrifuged at 8° C. at 8000 rpm for 5 min and re-suspended in fresh medium.
# (§15) The cells were grown in normal cell culture conditions at 37° C. under a 5% CO2 humidified atmosphere using appropriate medium. The cell count was adjusted to 10^5 cells/ml/ and 20,000 cells were added per well. The cells were incubated for 24 hours and 1 μl of the appropriate inhibitor concentrations were to the wells in triplicates. After 24 h of continuous exposure to each compound, the cytotoxicity was determined using the MIT (3-(4,5-Dimethylthiazol-2-yl)-2,5-diphenyltetrazolium bromide) (Lancaster Synthesis Ltd, UK) colorimetric assay. Absorbance was quantified by spectrophotometry at λ=570 nm (Envision Plate Reader, PerkinElmer, USA). IC50 values were calculated by a dose-response analysis using the Prism Graphpad Prism® software. The cytotoxicity results are shown below in Table 12.
# [17] = tested on: WI38 (Healthy cell line); experiment: MTT cytotoxicity assay; assay type: cell-based; conditions: Homo sapiens, WI-38; MTT; 24 h continuous exposure; highest concentration tested 20 μM; read-out: IC50 WI38 (Healthy cell line)
# Procedure: as §14, §15
# [18] = tested on: A. baumannii AYE; experiment: General MIC protocol, Gram negative; assay type: cell-based; conditions: Acinetobacter baumannii
# Procedure: as §1, §2, §3, §4, §5, §6, §7, §8, §9, §10, §11, §12, §13
# [19] = tested on: K. pneumonia M6; experiment: General MIC protocol, Gram negative; assay type: cell-based; conditions: Klebsiella pneumoniae; KP-M6
# Procedure: as §1, §2, §3, §4, §5, §6, §7, §8, §9, §10, §11, §12, §13
# [20] = tested on: P. aeruginosa NCTC 13437; experiment: General MIC protocol, Gram negative; assay type: cell-based; conditions: Pseudomonas aeruginosa, NCTC13437
# Procedure: as §1, §2, §3, §4, §5, §6, §7, §8, §9, §10, §11, §12, §13
# [21] = tested on: A. baumannii NCTC 17978; experiment: General MIC protocol, Gram negative; assay type: cell-based; conditions: Acinetobacter baumannii, NCTC17978
# Procedure: as §1, §2, §3, §4, §5, §6, §7, §8, §9, §10, §11, §12, §13
# [22] = tested on: K. pneumonia NCTC 13368; experiment: General MIC protocol, Gram negative; assay type: cell-based
# Procedure: as §1, §2, §3, §4, §5, §6, §7, §8, §9, §10, §11, §12, §13
# [23] = tested on: resistant mutants of KP 13368; experiment: MIC following resistance development; assay type: cell-based, Klebsiella; conditions: KP 13368; following resistance development
# Procedure: as §1, §2, §3, §4, §5, §6, §7, §8, §9, §10, §11, §12, §13
# (§16) The MIC of PP-A418 and colistin against the strains used in the time kill analysis of Example 31 following resistance development were measured. The MIC was measured using the general MIC protocol given above. The results are given in Table 14 below where the MIC values of resistant mutants are shown in the brackets.
# [24] = tested on: resistant mutants of KP 13438; experiment: MIC following resistance development; assay type: cell-based, Klebsiella; conditions: KP 13438; following resistance development
# Procedure: as §1, §2, §3, §4, §5, §6, §7, §8, §9, §10, §11, §12, §13, §16
# [25] = tested on: resistant mutants of KP 16; experiment: MIC following resistance development; assay type: cell-based, Klebsiella; conditions: KP 16; following resistance development
# Procedure: as §1, §2, §3, §4, §5, §6, §7, §8, §9, §10, §11, §12, §13, §16
# [26] = Klebsiella pneumoniae, NCTC13368
Compound,MIC [10] [µg/mL],MIC [11] [µg/mL],MIC [12] [µg/mL],MIC [13] [µg/mL],MIC [14] [µg/mL],MIC [15] [µg/mL],IC50 [16] [µM],IC50 [17] [µM],MIC [18] [µg/mL],MIC [19] [µg/mL],MIC [20] [µg/mL],"MIC ([3]; PA01, PA01) [µg/mL]",MIC [21] [µg/mL],"MIC [22, 26] [µg/mL]",other results
"C[C@H]1COc2c(N3CCN(C)CC3)c(F)cc3c(=O)c(C(=O)O)cn1c23 [Levofloxacin, levofloxacin]",–,–,–,–,–,–,–,–,–,–,–,–,–,–,"MIC ([1]; Klebsiella pneumoniae, NCTC13438, read-out: MIC): > 16 µg/mL; MIC ([2]; Klebsiella pneumoniae, read-out: MIC): 8 to 16 µg/mL; MIC ([3]; PA01, read-out: MIC): 4 µg/mL; MIC ([4]; Klebsiella pneumoniae, MGH78578, read-out: MIC): 1 µg/mL; MIC ([5]; Klebsiella pneumoniae, NCTC13443, read-out: MIC): > 16 µg/mL; MIC ([6]; Klebsiella pneumoniae, NCTC13439, read-out: MIC): 16 µg/mL; MIC ([7]; Klebsiella pneumoniae, NCTC51851, read-out: MIC): > 16 µg/mL; MIC [8]: > 16 µg/mL; MIC ([9]; Klebsiella KP 342, read-out: MIC): 0.5 to 1 µg/mL"
"CCN(CC)C(=O)c1cc2cc(NC(=O)c3cc(NC(=O)CCCOc4cc5c(cc4OC)C(=O)N4CCC[C@H]4C=N5)cn3C)ccc2o1 [PP-B27, (S)—N-(2-(diethylcarbamoyl)benzofuran-5-yl)-4-(4-((7-methoxy-5-oxo-2,3,5,11a-tetrahydro-1H-benzo[e]pyrrolo[1,2-a][1,4]-diazepin-8-yl)oxy)butanamido)-1-methyl-1H-pyrrole-2-carboxamide]",0.5,0.25,< 0.125,< 0.125,< 0.125,0.25,> 20,> 20,4,8,32,128,4,64,–
CCN(CC)C(=O)c1cc2cc(NC(=O)c3cc(NC(=O)CCCOc4cc5c(cc4OC)C(=O)N4CCC[C@H]4C=N5)cn3C)ccc2s1 [PP-B28],4,1,0.5,1,0.5,1,> 20,> 20,4,8,32,128,4,64,–
colistin [reference compound],–,–,–,–,–,–,–,–,–,–,–,–,–,–,MIC of resistant mutants (in brackets) [23]: (32-64) μg/ml; MIC of resistant mutants (in brackets) [24]: (64-128) μg/ml; MIC of resistant mutants (in brackets) [25]: (64-128) μg/ml; MIC [1]: 2 µg/mL; MIC [2]: 2 to 4 µg/mL; MIC ([2]; listed as Collistin): 1 µg/mL; MIC [4]: 8 µg/mL; MIC [5]: 2 µg/mL; MIC ([22]; KP NCTC 13368): 4 µg/mL; MIC [6]: 4 µg/mL; MIC [7]: 64 µg/mL; MIC ([9]; Klebsiella): 4 µg/mL
